The text below walks through data of patent US20250152585A1, “PHARMACEUTICAL COMPOUND” (Duke Street Bio Limited, priority 2022, published 2025).

Assay [1] deals with T1, full length N-terminally FLAG-tagged PARP1 (Homo sapiens, UniProt P09874). The assay can be described thus: PARP1 biochemical DELFIA assay (auto-PARylation). Also noted: recombinant full length human N-terminally FLAG-tagged PARP1.
Assay [2] has as its target T1, full length N-terminally FLAG-tagged PARP1. The assay can be described thus: PARP1 probe displacement HTRF assay. The note with it: for Selectivity: PARP1 over PARP2, ratio Kd (PARP2)/Kd (PARP1); for Kd: binned Kd.
The target in assay [3] is T2, N-terminally FLAG-tagged PARP2 (amino acids 1-583) (Homo sapiens, UniProt Q9UGN5).
T2 construct: N-terminally FLAG-tagged PARP2 (amino acids 1-583)
The assay can be described thus: PARP2 probe displacement HTRF assay. The class given is binding. The note with it: binned Kd. The method, then:
Data analysis was performed identical as for PARP1.
In general terms: Time-resolved FRET reads energy transfer from a long-lived donor to a nearby acceptor.

The mark [4] stands for this setting: binned IC50, PARP1 biochemical DELFIA assay.
[5] abbreviates: read-out: PARP1 HTRF, PARP1 probe displacement HTRF.
Setting [6] is: binned IC50, biochemical auto-PARylation assay.
Setting [7] is: read-out: PARP1 HTRF, probe displacement HTRF.
[8] abbreviates: PARP1 HTRF, probe displacement HTRF.

Where two headings read alike, the source gives them in different places. Where only a bound is given, the exact number is not on record here.

T2 sequence (Q9UGN5 whole entry, the tested form may be a part): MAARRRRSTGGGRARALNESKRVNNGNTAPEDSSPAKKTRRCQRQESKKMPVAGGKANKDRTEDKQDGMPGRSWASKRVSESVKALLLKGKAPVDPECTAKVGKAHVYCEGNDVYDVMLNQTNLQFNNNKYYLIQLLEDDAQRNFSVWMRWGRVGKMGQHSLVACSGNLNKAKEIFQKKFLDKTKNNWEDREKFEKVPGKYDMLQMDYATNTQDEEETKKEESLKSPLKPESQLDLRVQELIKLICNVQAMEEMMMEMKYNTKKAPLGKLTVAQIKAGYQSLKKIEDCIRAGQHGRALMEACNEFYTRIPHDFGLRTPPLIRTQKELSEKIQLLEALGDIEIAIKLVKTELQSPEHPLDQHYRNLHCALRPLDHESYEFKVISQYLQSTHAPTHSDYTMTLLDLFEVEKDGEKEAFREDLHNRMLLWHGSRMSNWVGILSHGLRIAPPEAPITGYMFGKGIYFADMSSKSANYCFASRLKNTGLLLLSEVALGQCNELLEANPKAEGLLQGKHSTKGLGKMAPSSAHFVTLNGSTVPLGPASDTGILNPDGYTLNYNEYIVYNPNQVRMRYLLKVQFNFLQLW
T1 sequence (P09874 whole entry): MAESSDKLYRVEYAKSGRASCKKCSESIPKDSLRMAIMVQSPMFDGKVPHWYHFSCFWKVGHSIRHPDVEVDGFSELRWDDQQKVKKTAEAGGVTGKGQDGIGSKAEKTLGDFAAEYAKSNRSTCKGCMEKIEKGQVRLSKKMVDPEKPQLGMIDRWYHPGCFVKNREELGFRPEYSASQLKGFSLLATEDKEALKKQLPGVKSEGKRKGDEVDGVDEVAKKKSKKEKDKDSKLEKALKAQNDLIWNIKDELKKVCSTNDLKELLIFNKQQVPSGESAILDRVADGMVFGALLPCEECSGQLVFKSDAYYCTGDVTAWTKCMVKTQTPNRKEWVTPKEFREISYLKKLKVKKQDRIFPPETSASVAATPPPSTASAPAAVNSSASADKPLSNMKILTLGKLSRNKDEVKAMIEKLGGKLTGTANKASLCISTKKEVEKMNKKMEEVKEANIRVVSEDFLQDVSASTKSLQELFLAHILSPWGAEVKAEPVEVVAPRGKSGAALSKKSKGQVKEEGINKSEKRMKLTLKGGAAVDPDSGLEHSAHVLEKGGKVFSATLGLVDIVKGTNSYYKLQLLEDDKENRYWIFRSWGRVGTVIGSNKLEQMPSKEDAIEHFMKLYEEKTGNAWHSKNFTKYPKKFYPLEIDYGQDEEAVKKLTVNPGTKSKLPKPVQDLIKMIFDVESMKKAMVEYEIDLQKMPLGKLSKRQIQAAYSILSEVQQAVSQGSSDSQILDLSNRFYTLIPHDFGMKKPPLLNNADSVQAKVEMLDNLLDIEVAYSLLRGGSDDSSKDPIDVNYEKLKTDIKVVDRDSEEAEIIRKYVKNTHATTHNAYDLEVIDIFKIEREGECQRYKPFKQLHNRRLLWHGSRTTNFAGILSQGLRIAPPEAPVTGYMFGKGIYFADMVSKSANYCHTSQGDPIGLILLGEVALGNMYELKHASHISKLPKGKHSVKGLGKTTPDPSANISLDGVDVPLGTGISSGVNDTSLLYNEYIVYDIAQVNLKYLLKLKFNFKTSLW

With `CNC(=O)c1ccc(N2CCC(N3CCC(c4cc5cccc(F)c5c(=O)[nH]4)C3)CC2)nn1` (single isomer, unassigned) [Compound 209b], the IC50 in assay [1] (setting [4]) lay within 0.01 to 0.1 µM. For the same compound, the Selectivity result in assay [2] (probe displacement HTRF) was “+++ (+++ indicate a value of at least 100)”. Moreover, the Kd in assay [2] (setting [5]) is 0.01 to 0.1 µM; in assay [3] (PARP2 probe displacement HTRF) it was 1 to 10 µM.

For `CNC(=O)c1ccc(N2CCC(N3CCC(c4[nH]c(=O)c5cc(F)ccc5c4F)C3)CC2)c(F)n1` (racemic) [Compound 403rac], the IC50 in assay [1] (setting [6]) was less than 0.01 µM. For the same compound, the Selectivity entry in assay [2] (probe displacement HTRF) is recorded as “+++ (+++ indicate a value of at least 100)”. Also, the Kd in assay [2] (setting [7]) is less than 0.01 µM; in assay [3] (probe displacement HTRF), 0.01 to 0.1 µM.

With `CC(=O)Nc1ccc(N2CCC(N3CCC(c4cc5ccccc5c(=O)[nH]4)C3)CC2)c(Cl)c1` (single isomer, unassigned) [Compound 273a], the IC50 in assay [1] (setting [6]) is 0.1 to 1 µM. Further, in assay [2] (probe displacement HTRF), the Selectivity entry was “− (− indicates a value of less than 10)”. Also, the Kd was in the range of 0.1 to 1 µM in assay [2] (setting [7]) and 1 to 10 µM in assay [3] (probe displacement HTRF).

Take `O=c1[nH]c(CC2CCCN(C3CCC(F)(F)CC3)C2)nc2ccccc12` (single isomer, unassigned) [Compound 11b]: in assay [1] (setting [4]), the IC50 was in the range of 0.1 to 1 µM. For the same compound, the Selectivity result in assay [2] (probe displacement HTRF) was “− (− indicates a value of less than 10)”. In addition, the Kd in assay [2] (setting [5]) fell in the range of 0.1 to 1 µM; in assay [3] (PARP2 probe displacement HTRF), 1 to 10 µM.

Regarding `CNC(=O)c1ccc(N2CCC(CN3CC4(c5nc6ccccc6c(=O)[nH]5)CC3C4)CC2)cn1` [Compound 193], the IC50 in assay [1] (setting [4]) was 0.01 to 0.1 µM. The Kd in assay [2] (PARP1 HTRF, PARP1 probe displacement HTRF) fell in the range of 0.01 to 0.1 µM; in assay [3] (PARP2 probe displacement HTRF) it was 1 to 10 µM. The Selectivity result in assay [2] (probe displacement HTRF) is reported as “+++ (+++ indicate a value of at least 100)”.

Consider `CNC(=O)c1ccc(N2CCC(N3CCC(c4ccc(CCO)c(=O)[nH]4)C3)CC2)cn1` (racemic) [Compound 286rac], for which, in assay [1] (setting [6]), the IC50 is 0.01 to 0.1 µM. In addition, the Selectivity result in assay [2] (probe displacement HTRF) is “+++ (+++ indicate a value of at least 100)”. Further, the Kd in assay [2] (setting [7]) was 0.01 to 0.1 µM; in assay [3] (probe displacement HTRF) it was more than 10 µM.

Regarding `CNC(=O)c1ccc(N2CCC(N3CCCC(O)(c4nc5ccccc5c(=O)[nH]4)C3)CC2)cn1` (single isomer, unassigned) [Compound 327a], in assay [1] (setting [6]), the concentration for half-maximal inhibition (IC50) is 0.1 to 1 µM. For the same compound, the Selectivity result in assay [2] (probe displacement HTRF) is “+ (+ indicates a value of 10 to less than 50)”. Besides, the Kd was 0.1 to 1 µM in assay [2] (setting [7]) and more than 10 µM in assay [3] (probe displacement HTRF).

For the compound `CNC(=O)c1ccc(N2CCC(N3CCCC(c4nc5ccccc5c(=O)[nH]4)CC3)CC2)cn1` (racemic) [Compound 102rac], the half-inhibitory concentration (IC50) in assay [1] (setting [4]) is less than 0.01 µM. Also, in assay [2] (probe displacement HTRF), the Selectivity result was “+++ (+++ indicate a value of at least 100)”. In addition, the Kd was less than 0.01 µM in assay [2] (setting [5]) and 1 to 10 µM in assay [3] (PARP2 probe displacement HTRF).

Regarding `CNC(=O)c1ccc(N2CCC(N3CCC(c4cc5cccc(F)c5c(=O)[nH]4)C3)CC2)c(F)c1` (single isomer, unassigned) [Compound 371b], in assay [1] (setting [6]), the IC50 fell in the range of 0.01 to 0.1 µM. In addition, the Selectivity result in assay [2] (probe displacement HTRF) is “++ (++ indicates a value of 50 to less than 100)”. Besides, the figures for the Kd in assay [2] (setting [7]) and in assay [3] (probe displacement HTRF) were 0.01 to 0.1 µM and 1 to 10 µM, respectively.

As for `CNC(=O)c1ccc(OCCN2CCC(c3nc4ccccc4c(=O)[nH]3)C2)cn1` (single isomer, unassigned) [Compound 62a], the IC50 in assay [1] (setting [4]) lay within 0.01 to 0.1 µM. For the same compound, the Selectivity result in assay [2] (probe displacement HTRF) is on record as “++ (++ indicates a value of 50 to less than 100)”. Besides, the figures for the Kd in assay [2] (setting [5]) and in assay [3] (PARP2 probe displacement HTRF) were 0.01 to 0.1 µM and 1 to 10 µM, respectively.

`N#Cc1ccc(N2CCC(N3CC4(c5nc6ccc(F)cc6c(=O)[nH]5)CC3C4)CC2)c(Cl)c1` [Compound 381]: the IC50 in assay [1] (setting [6]) was less than 0.01 µM. The figures for the Kd in assay [2] (setting [8]) and in assay [3] (probe displacement HTRF) were less than 0.01 µM and 1 to 10 µM, respectively. For the same compound, in assay [2] (probe displacement HTRF), the Selectivity result is on record as “+++ (+++ indicate a value of at least 100)”.

Turning to `CNC(=O)c1ccc(N2CCC(N3CCC(c4nc5ccc(Cl)cc5c(=O)[nH]4)C3)CC2)cn1` (single isomer, unassigned) [Compound 68b], the 50% inhibitory concentration (IC50) in assay [1] (setting [4]) is 0.01 to 0.1 µM. In addition, the Selectivity entry in assay [2] (probe displacement HTRF) is reported as “+ (+ indicates a value of 10 to less than 50)”. The Kd is less than 0.01 µM in assay [2] (setting [5]) and 0.1 to 1 µM in assay [3] (PARP2 probe displacement HTRF).

Turning to `CNC(=O)c1ccc(N2CCC(N3CCCC(F)(c4nc5ccccc5c(=O)[nH]4)C3)CC2)cn1` (single isomer, unassigned) [Compound 71a], the half-maximal inhibitory concentration (IC50) in assay [1] (setting [4]) fell in the range of 1 to 10 µM. For the same compound, the Selectivity result in assay [2] (probe displacement HTRF) is “− (− indicates a value of less than 10)”. In addition, the Kd in assay [2] (setting [5]) was 1 to 10 µM; in assay [3] (PARP2 probe displacement HTRF), more than 10 µM.

Turning to `CNC(=O)c1ccc(N2CCC(N3CCC(c4nc5c(c(C(F)(F)F)cn5C)c(=O)[nH]4)C3)CC2)cn1` (single isomer, unassigned) [Compound 170a], in assay [1] (setting [4]), the IC50 was less than 0.01 µM. The Selectivity result in assay [2] (probe displacement HTRF) was “− (− indicates a value of less than 10)”. The Kd in assay [2] (setting [5]) and in assay [3] (PARP2 probe displacement HTRF) was less than 0.01 µM each time.

On to `CNC(=O)c1ccc(N2CCC(N3CC4(c5nc6c(c(=O)[nH]5)COCC6)CC3C4)CC2)cn1` [Compound 373], for which, in assay [1] (setting [6]), the 50% inhibitory concentration (IC50) was less than 0.01 µM. Further, the values for the Kd in assay [2] (setting [8]) and in assay [3] (probe displacement HTRF) were less than 0.01 µM and 1 to 10 µM, respectively. In addition, in assay [2] (probe displacement HTRF), the Selectivity entry was “+++ (+++ indicate a value of at least 100)”.

Consider `N#Cc1ccc(N2CCC(N3CCC(c4cc5cccc(F)c5c(=O)[nH]4)C3)CC2)cn1` (single isomer, unassigned) [Compound 316b], for which the IC50 in assay [1] (setting [6]) was 0.01 to 0.1 µM. In assay [2] (probe displacement HTRF), the Selectivity result was “+ (+ indicates a value of 10 to less than 50)”. Moreover, the Kd was 0.01 to 0.1 µM in assay [2] (setting [7]) and 0.1 to 1 µM in assay [3] (probe displacement HTRF).

Take `CNC(=O)c1ccc(N2CCC(N3CCC(c4nc5ccccc5c(=O)[nH]4)C3)CC2)c(C)n1` (single isomer, unassigned) [Compound 125b]: the concentration for half-maximal inhibition (IC50) in assay [1] (setting [4]) was less than 0.01 µM. Besides, the Selectivity entry in assay [2] (probe displacement HTRF) is “+++ (+++ indicate a value of at least 100)”. The values for the Kd in assay [2] (setting [5]) and in assay [3] (PARP2 probe displacement HTRF) were less than 0.01 µM and 1 to 10 µM, respectively.

In the case of `CNC(=O)c1ccc(N2CCC(N3CCC(c4nc5ccccc5c(=O)[nH]4)C3)CC2)c(C(F)F)n1` (single isomer, unassigned) [Compound 158b], the IC50 in assay [1] (setting [4]) was in the range of 0.01 to 0.1 µM. Moreover, in assay [2] (probe displacement HTRF), the Selectivity entry is listed as “+++ (+++ indicate a value of at least 100)”. Further, the Kd in assay [2] (setting [5]) was 0.01 to 0.1 µM; in assay [3] (PARP2 probe displacement HTRF), 1 to 10 µM.

As for `CNC(=O)c1ccc(N2CCC(N3CCC(c4cc5cccc(Cl)c5c(=O)[nH]4)C3)CC2)cn1` (single isomer, unassigned) [Compound 128a], the IC50 in assay [1] (setting [4]) is 0.01 to 0.1 µM. Also, in assay [2] (probe displacement HTRF), the Selectivity result is given as “+++ (+++ indicate a value of at least 100)”. For the same compound, the Kd was 0.01 to 0.1 µM in assay [2] (setting [5]) and 1 to 10 µM in assay [3] (PARP2 probe displacement HTRF).

On to `CNC(=O)c1ccc(N2CCC(N3CCC(c4ccc(CCF)c(=O)[nH]4)C3)CC2)cn1` (racemic) [Compound 231rac], for which the IC50 in assay [1] (setting [6]) was less than 0.01 µM. The Selectivity entry in assay [2] (probe displacement HTRF) is listed as “+++ (+++ indicate a value of at least 100)”. In addition, the Kd in assay [2] (setting [7]) was less than 0.01 µM; in assay [3] (probe displacement HTRF), 1 to 10 µM.

Regarding `CNC(=O)c1cnc(N2CCC(N3CCC(c4nc5ccccc5c(=O)[nH]4)C3)CC2)cn1` (single isomer, unassigned) [Compound 96b], the IC50 in assay [1] (setting [4]) is 0.1 to 1 µM. Also, the Selectivity entry in assay [2] (probe displacement HTRF) is reported as “− (− indicates a value of less than 10)”. Moreover, the Kd in assay [2] (setting [5]) and in assay [3] (PARP2 probe displacement HTRF) was 0.1 to 1 µM each time.

Consider `CNC(=O)c1ccc(N2CCC(N3CCC(F)(c4nc5ccccc5c(=O)[nH]4)C3)CC2)cn1` (single isomer, unassigned) [Compound 328b], for which, in assay [1] (setting [6]), the IC50 lay in the range of 0.01 to 0.1 µM. In addition, the Selectivity result in assay [2] (probe displacement HTRF) is “+++ (+++ indicate a value of at least 100)”. Besides, the Kd in assay [2] (setting [7]) is 0.01 to 0.1 µM; in assay [3] (probe displacement HTRF) it was more than 10 µM.

The IC50 is the concentration that inhibits the measured activity by half.
